# What was measured:
# [1] = test system: porcine pancreatic lipase; test: In vitro hydrolysis of prodrugs by incubation with porcine pancreatic lipase; type: in vitro ADME; conditions: 37° C.; for hydrolysis of prodrug to its monoglyceride form: simulated intestinal micellar solution, 0-180 min
# Procedure: To provide for higher throughput of experiments, unless otherwise stated, in vitro hydrolysis of compounds will generally be performed via incubation with porcine pancreatic lipase. This provides a more reproducible source of pancreatic enzymes, facilitates enhanced experimental throughput, and is also a greater challenge than collected rat enzymes (since enzyme activity in rat intestinal fluid is low). Briefly, pancreatic lipase solution was prepared prior to the hydrolysis experiment by dispersion of 1 g porcine pancreatin in 5 ml of lipolysis buffer and 16.9 μL of 0.5 M NaOH. The suspension was mixed well and centrifuged at 3500 rpm for 15 minutes at 5° C. to provide a supernatant. An amount of 1000 mL of lipolysis buffer was prepared with 0.474 g of tris-maleate (2 mM), 0.206 g of CaCl2.H2O (1.4 mM) and 8.775 g of NaCl (150 mM) adjusted with NaOH to pH 6.5. To assess the potential for prodrug hydrolysis in the intestine, 20 μL of prodrug solution (1 mg/mL dissolved in acetonitrile), 900 μL of simulated intestinal micellar solution [prepared with 0.783 g of NaTDC (3 mM) and 0.291 g of phosphatidylcholine (0.75 mM) in 500 mL lipolysis buffer] and 100 μL of enzyme solution were incubated at 37° C. 20 μL samples of the incubation solution were taken at 0, 5, 10, 15, 30, 60, 90, 120 and 180 minutes post incubation and added to 180 μL of MeCN to stop lipolysis. The mixture was vortexed and centrifuged at 5000 rpm for 5 minutes to precipitate proteins prior to analysis. The supernatant was analyzed by HPLC-MS for residual compound concentrations, and the potential products of compound hydrolysis analyzed.
# The data for prodrug compounds I-1 and I-2 are shown in FIG. 8 and FIG. 9, respectively. […] The monoglycerides were then converted at different rates to an acid intermediate and/or free parent ALLO. An acid intermediate was not observed for prodrug I-2. The acid intermediate of prodrug I-1 is believed to have the following structure, based on HPLC-MS data: […]
# [2] = test system: rat plasma supplemented with lipoprotein lipase (LPL); test: In vitro hydrolysis of prodrugs in rat plasma supplemented with lipoprotein lipase; type: in vitro ADME; conditions: 37° C.; for hydrolysis of prodrug to its monoglyceride form: 0-180 min
# Procedure: (§1) In order to probe the release of free drug from TG prodrugs in the systemic circulation, prodrugs are incubated with plasma (rat, mouse, dog, pig or human) supplemented with lipoprotein lipase (LPL, 200 IU/ml). LPL is a key enzyme required for the hydrolysis of lipoprotein associated TG in the systemic circulation and is therefore expected to be a key contributor to lipolysis of the re-esterified drug-TG construct in plasma, largely via liberation of fatty acids in the sn-1 and the sn-3 position of the TG-mimetic, prior to drug release from the 2′ position via esterase hydrolysis. […] is tethered to the luminal surface of vascular endothelial cells under physiological conditions. In the current in vitro studies, plasma is therefore supplemented with LPL to better reflect the in vivo situation.
# (§2) To start hydrolysis, 10 μl of LPL solution (10,000 IU/ml) was added to a mixture of 10 μl of prodrug solution (1 mg/ml dissolved in acetonitrile) and 500 μl of blank plasma. The mixture was incubated at 37° C. Samples (20 μl) of the incubation solution were taken at 0, 5, 15, 30, 60, 90, 120 and 180 minutes post-incubation and added to 180 μl of MeCN to stop lipolysis. The mixture was vortexed and centrifuged at 4500×g for 5 minutes to precipitate proteins prior to analysis. The supernatant was analyzed by HPLC-MS/MS for the potential products (MG form, acid form, and free drug) of prodrug hydrolysis.
# (§3) The in vitro hydrolysis profile of selected prodrug compounds was determined in rat, dog, and/or human plasma supplemented with LPL. The data for prodrug compound I-1 in rat and dog plasma are shown in FIG. 10 and FIG. 11, respectively. The data for prodrug compound I-2 in rat, dog, and human plasma are shown in FIG. 12, FIG. 13, and FIG. 14, respectively. […] The monoglycerides were then converted at different rates to an acid intermediate and/or free parent ALLO. An acid intermediate was not observed for prodrug I-2. The acid intermediate of prodrug I-1 is believed to have the following structure, based on HPLC-MS data: […]
# [3] = test system: dog plasma supplemented with lipoprotein lipase (LPL); test: In vitro hydrolysis of prodrugs in dog plasma supplemented with lipoprotein lipase; type: in vitro ADME; conditions: 37° C.; for hydrolysis of prodrug to its monoglyceride form: 0-180 min
# Procedure: as §1, §2, §3
# [4] = test system: human plasma supplemented with lipoprotein lipase (LPL); test: In vitro hydrolysis of prodrugs in human plasma supplemented with lipoprotein lipase; type: in vitro ADME; conditions: 37° C.
# Procedure: as §1
# To start hydrolysis, 10 μl of LPL solution (10,000 IU/ml) was added to a mixture of 10 μl of prodrug solution (1 mg/ml dissolved in acetonitrile) and 500 μl of blank plasma. The mixture was incubated at 37° C. […] The supernatant was analyzed by HPLC-MS/MS for the potential products (MG form, acid form, and free drug) of prodrug hydrolysis.
# The in vitro hydrolysis profile of selected prodrug compounds was determined in rat, dog, and/or human plasma supplemented with LPL. […]
# [5] = Rat pharmacokinetic studies: plasma allopregnanolone after oral prodrug or ALLO, and after IV ALLO; type: in vivo, male Sprague-Dawley rats; conditions: plasma Allo after oral gavage to rats; doses normalized to 2 mg/kg equivalent ALLO; mean±SD (n≥3) or mean±range (n=2)
# Procedure: In order to assess the oral bioavailability of test compounds, pharmacokinetic studies were conducted using the following procedure. The day before drug administration, male Sprague-Dawley rats (240-320 g) were anesthetized and the carotid artery was cannulated. The rats were then allowed to regain consciousness and fasted overnight prior to the commencement of experiments with free access to water. The next morning, formulations containing parent compounds or prodrugs were administered via oral gavage or via the jugular vein cannula, and blood samples were collected from the carotid artery cannula from −5 min up to 24 h post dosing. During the blood sample collection period the rats had free access to water but remained fasted for a further 8 h following drug administration. In these allopregnanolone (ALLO) related studies, the blood samples were centrifuged at 4500×g for 5 min to separate plasma. Plasma samples were stored at −20° C. prior to assay by HPLC-MS-MS. The whole blood or plasma samples were assayed for free drug (i.e. non-glyceride associated drug) and were not hydrolized prior to assay (as was the case with the lymph samples).
# FIG. 3 illustrates dose-normalized ALLO plasma concentrations following oral gavage of ALLO related formulations to conscious, carotid artery-cannulated male SD rats. The ALLO oral formulation for each rat contained 2 mg of parent ALLO (i.e., non-prodrug allopregnanolone) suspended in 2 ml of suspending vehicle (0.50 sodium carboxymethyl cellulose, 0.4% Tween 80 and 0.9% NaCl in water). Prodrug formulations for each rat contained 2 mg of the ALLO prodrug dispersed in 40 mg oleic acid, 25 mg Tween 80 and 2 ml PBS. Doses were normalized to a 2 mg/kg equivalent dose of ALLO. Data are shown as mean±SD n≥3 or mean±range when n=2. […] Doses are normalized to a 2 mg/kg equivalent ALLO dose and data are presented as mean±SD when n≥3 or mean±range when n=2.
# Also shown (bottom) is the calculated area under the curve (AUC) over 0-24 h for each of the test compounds as a fraction of the IV-administered allpregnanolone control.
# [6] = background statement; cited from earlier work
Structure (SMILES),hydrolysis of prodrug to its monoglyceride form [1],hydrolysis of prodrug to its monoglyceride form [2],hydrolysis of prodrug to its monoglyceride form [3],Cmax [5],other results
"CCCCCCCCCCCCCCCC(=O)OCC(COC(=O)CCCCCCCCCCCCCCC)OC(=O)CCCCCCCCC(=O)O[C@@H]1CC[C@@]2(C)[C@@H](CC[C@@H]3[C@@H]2CC[C@]2(C)[C@@H](C(C)=O)CC[C@@H]32)C1 [Compound I-1, 1-((3R,5S,8R,9S,10S,13S,14S,17S)-17-acetyl-10,13-dimethylhexadecahydro-1H-cyclopenta[a]phenanthren-3-yl) 10-(1,3-bis(palmitoyloxy)propan-2-yl) decanedioate]",rapidly converted to the prodrug's monoglyceride form,rapidly converted to the prodrug's monoglyceride form,rapidly converted to the prodrug's monoglyceride form,–,–
"CCCCCCCCCCCCCCCC(=O)OCC(COC(=O)CCCCCCCCCCCCCCC)OC(=O)CC(C)CC(=O)OC(C)OC(=O)O[C@@H]1CC[C@@]2(C)[C@@H](CC[C@@H]3[C@@H]2CC[C@]2(C)[C@@H](C(C)=O)CC[C@@H]32)C1 (stereo partly drawn) [Compound I-2, 1-(1-(((((3R,5S,8R,9S,10S,13S,14S,17S)-17-acetyl-10,13-dimethylhexadecahydro-1H-cyclopenta[a]phenanthren-3-yl)oxy)carbonyl)oxy)ethyl) 5-(1,3-bis(palmitoyloxy)propan-2-yl) 3-methylpentanedioate]",rapidly converted to the prodrug's monoglyceride form,rapidly converted to the prodrug's monoglyceride form,rapidly converted to the prodrug's monoglyceride form,–,acid intermediate of hydrolysis ([1]; HPLC-MS): not observed; acid intermediate of hydrolysis [2]: not observed; acid intermediate of hydrolysis [3]: not observed; acid intermediate of hydrolysis [4]: not observed; hydrolysis of prodrug to its monoglyceride form ([4]; 0-180 min): rapidly converted to the prodrug's monoglyceride form
"CCCCCCCCCCCCCCCC(=O)OCC(COC(=O)CCCCCCCCCCCCCCC)OC(=O)C(C)(C)CCCCCCCC(=O)O[C@@H]1CC[C@@]2(C)[C@@H](CC[C@@H]3[C@@H]2CC[C@]2(C)[C@@H](C(C)=O)CC[C@@H]32)C1 [Compound I-12, 10-((3R,5S,8R,9S,10S,13S,14S,17S)-17-acetyl-10,13-dimethylhexadecahydro-1H-cyclopenta[a]phenanthren-3-yl) 1-(1,3-bis(palmitoyloxy)propan-2-yl) 2,2-dimethyldecanedioate]",–,–,–,below LOQ),–
"CCCCCCCCCCCCCCCC(=O)OCC(COC(=O)CCCCCCCCCCCCCCC)OC(=O)C(C)(C)CCCCCCCCCC(=O)O[C@@H]1CC[C@@]2(C)[C@@H](CC[C@@H]3[C@@H]2CC[C@]2(C)[C@@H](C(C)=O)CC[C@@H]32)C1 [Compound I-13, 12-((3R,5S,8R,9S,10S,13S,14S,17S)-17-acetyl-10,13-dimethylhexadecahydro-1H-cyclopenta[a]phenanthren-3-yl) 1-(1,3-bis(palmitoyloxy)propan-2-yl) 2,2-dimethyldodecanedioate]",–,–,–,below LOQ),–
CCCCCCCCCCC(=O)O[C@H]1CC[C@H]2[C@@H]3CCC4=CC(=O)CC[C@]4(C)[C@H]3CC[C@]12C [testosterone undecanoate],–,–,–,–,bioavailability of testosterone after oral administration of the undecanoate ester [6]: < 5%

# Reference: patent US20210300962A1, “LIPID PRODRUGS OF PREGNANE NEU[…] USES THEREOF” (PureTech LYT, Inc., priority 2018, published 2021)
